As usually defined, the DC50 is the concentration at which degradation of the target reaches its halfway point. Usually Dmax stands for the greatest extent of degradation seen. A low value points to shallow degradation.

In one assay the target is T1, B-RAF V600E (Homo sapiens, UniProt P15056, V600E).
T1 construct: expressed in transfected cells; host or cells: T-Rex 293 cells (Invitrogen #R71007)
Briefly: Target protein degradation, assay C: T-Rex 293 cells, HA-BRAF_V600E, 384 well format. The class given is cell-based. To be noted: T-Rex 293 HA-BRAF_V600E cells, 24 hours, Examples 83-269; for DC50: Assay C; for Dmax: T-REx-293, Assay C. The essentials: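 After 24 h exposure to an 11-point 1:3 series (300 nM–5 pM, 0.5% DMSO), fixed T-Rex 293 cells carrying HA-BRAF V600E (induced with 1 ng/mL doxycycline) were stained anti-HA and imaged. DC50 and Dmax were derived from BRAF intensity relative to control, and cytotoxicity from nuclear counts.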

Another assay addresses T2, B-RAF G466V (Homo sapiens, UniProt P15056, G466V).
T2 construct: expressed in transfected cells; host or cells: T-Rex 293 cells (Invitrogen #R71007)
The assay can be described thus: Target protein degradation, assay D: T-Rex 293 cells, HA-BRAF_G466V, 384 well format. The class given is cell-based. To be noted: T-Rex 293 HA-BRAF_G466V cells, 24 hours, Examples 83-269; for DC50: Assay D; for Dmax: T-REx-293, Assay D. An outline of the steps:
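Degradation measured by high-content imaging of anti-HA immunofluorescence in fixed T-Rex 293 cells carrying inducible HA-BRAF G466V (1 ng/mL doxycycline), after 24 h PROTAC exposure at 37 °C over 300 nM–5 pM (1:3, 11 points, 0.5% DMSO). Outputs DC50 and Dmax as % of control; nuclei counts against DMSO wells gauge toxicity.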

T2 sequence (P15056 whole entry G466V): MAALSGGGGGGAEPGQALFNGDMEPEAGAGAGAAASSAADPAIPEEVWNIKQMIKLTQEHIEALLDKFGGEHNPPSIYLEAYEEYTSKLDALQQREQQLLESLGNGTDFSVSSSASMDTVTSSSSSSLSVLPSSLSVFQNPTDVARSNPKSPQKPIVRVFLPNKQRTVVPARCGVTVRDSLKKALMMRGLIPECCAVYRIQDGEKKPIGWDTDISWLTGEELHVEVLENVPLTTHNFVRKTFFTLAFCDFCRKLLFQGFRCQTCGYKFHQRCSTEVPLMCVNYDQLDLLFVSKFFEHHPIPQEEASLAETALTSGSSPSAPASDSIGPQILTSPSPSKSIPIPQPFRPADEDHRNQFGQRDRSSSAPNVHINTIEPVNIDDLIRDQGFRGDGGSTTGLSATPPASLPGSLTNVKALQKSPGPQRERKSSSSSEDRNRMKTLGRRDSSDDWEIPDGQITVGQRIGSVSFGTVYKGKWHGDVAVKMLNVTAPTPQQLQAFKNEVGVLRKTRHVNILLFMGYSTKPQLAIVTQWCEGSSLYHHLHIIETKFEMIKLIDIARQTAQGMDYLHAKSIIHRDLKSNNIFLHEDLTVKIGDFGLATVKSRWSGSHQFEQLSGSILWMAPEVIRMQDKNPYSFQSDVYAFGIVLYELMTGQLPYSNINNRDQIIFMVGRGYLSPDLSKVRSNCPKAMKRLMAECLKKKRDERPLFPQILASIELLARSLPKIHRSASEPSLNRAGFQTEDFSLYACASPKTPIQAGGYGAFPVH
T1 sequence (P15056 whole entry V600E): as the sequence (P15056 whole entry G466V) above, with V466G, V600E counted along it

As to `N#Cc1c(NS(=O)(=O)N2CC[C@@H](F)C2)ccc(F)c1Oc1ccc2ncn(-c3cnc(N4CCN(CC5CCN(c6ccc7c(c6)CN(C6CCC(=O)NC6=O)C7=O)CC5)CC4)cn3)c(=O)c2c1` (stereo partly drawn) [Example 89, (3R)-N-{2-cyano-3-[(3-(5-[4-({1-[2-(2,6-dioxopiperidin-3-yl)-1-oxo-2,3-dihydro-1H-isoindol-5-yl]piperidin-4-yl}methyl)piperazin-1-yl]pyrazin-2-yl}-4-oxo-3,4-dihydroquinazolin-6-yl)oxy]-4-fluorophenyl}-3-fluoropyrrolidine-1-sulfonamide], on B-RAF V600E, the half-maximal degradation concentration (DC50) lay within 0.005 to 0.05 µM and the maximal degradation (Dmax) lay in the range of 35 to 70%. At B-RAF G466V, the DC50 was in the range of 0.001 to 0.01 µM and the Dmax is ≤ 35%.
For `N#Cc1c(NS(=O)(=O)N2CC[C@@H](F)C2)ccc(F)c1Oc1ccc2ncn(-c3cccc(N4CCN(CC5CCN(c6ccc7c(c6)CN(C6CCC(=O)NC6=O)C7=O)CC5)CC4)c3)c(=O)c2c1` (stereo partly drawn) [Example 90, (3R)-N-{2-cyano-3-[(3-{3-[4-({1-[2-(2,6-dioxopiperidin-3-yl)-1-oxo-2,3-dihydro-1H-isoindol-5-yl]piperidin-4-yl}methyl)piperazin-1-yl]phenyl}-4-oxo-3,4-dihydroquinazolin-6-yl)oxy]-4-fluorophenyl}-3-fluoropyrrolidine-1-sulfonamide], in that order: 0.05 to 0.5 µM, 35 to 70%, 0.001 to 0.01 µM and 35 to 70%.
For `N#Cc1c(NS(=O)(=O)N2CC[C@@H](F)C2)ccc(F)c1Oc1ccc2ncn(-c3ccc(N4CCN(CC5CCN(c6ccc(C7CCC(=O)NC7=O)cn6)CC5)CC4)cc3)c(=O)c2c1` (stereo partly drawn) [Example 91, (3R)-N-{2-cyano-3-[(3-(4-[4-({1-[5-(2,6-dioxopiperidin-3-yl)pyridin-2-yl]piperidin-4-yl}methyl)piperazin-1-yl]phenyl}-4-oxo-3,4-dihydroquinazolin-6-yl)oxy]-4-fluorophenyl}-3-fluoropyrrolidine-1-sulfonamide], in that order: 0.005 to 0.05 µM, 35 to 70%, 0.001 to 0.01 µM and ≤ 35%.
For `N#Cc1c(NS(=O)(=O)N2CC[C@@H](F)C2)ccc(F)c1Oc1ccc2ncn(-c3ccc(N4CCN(CC5CCN(c6ccc7c(c6)CN(C6CCC(=O)NC6=O)C7=O)CC5)CC4)nn3)c(=O)c2c1` (stereo partly drawn) [Example 92, (3R)-N-{2-cyano-3-[(3-{6-[4-({1-[2-(2,6-dioxopiperidin-3-yl)-1-oxo-2,3-dihydro-1H-isoindol-5-yl]piperidin-4-yl}methyl)piperazin-1-yl]pyridazin-3-yl}-4-oxo-3,4-dihydroquinazolin-6-yl)oxy]-4-fluorophenyl}-3-fluoropyrrolidine-1-sulfonamide], in that order: 0.05 to 0.5 µM, ≤ 35%, 0.01 to 0.03 µM and ≤ 35%.
On to `N#Cc1c(NS(=O)(=O)N2CC[C@@H](F)C2)ccc(F)c1Oc1ccc2ncn(-c3cccc(N4CCCC(CN5CCN(c6ccc7c(c6)CN([C@H]6CCC(=O)NC6=O)C7=O)CC5)C4)c3)c(=O)c2c1` (stereo partly drawn) [Example 93, (3R)-N-(2-cyano-3-{[3-(3-{3-[(4-{2-[(3S)-2,6-dioxopiperidin-3-yl]-1-oxo-2,3-dihydro-1H-isoindol-5-yl}piperazin-1-yl)methyl]piperidin-1-yl}phenyl)-4-oxo-3,4-dihydroquinazolin-6-yl]oxy}-4-fluorophenyl)-3-fluoropyrrolidine-1-sulfonamide], for which, on B-RAF V600E, the DC50 fell in the range of 0.05 to 0.5 µM and the Dmax fell in the range of 35 to 70%. For the same molecule, at B-RAF G466V, the DC50 lay within 0.001 to 0.01 µM and the Dmax was ≤ 35%.
For `Cc1cc(N2CCC(CN3CCN(c4ccc(-n5cnc6ccc(Oc7c(F)ccc(NS(=O)(=O)N8CC[C@@H](F)C8)c7C#N)cc6c5=O)cc4)CC3)CC2)c(F)c2c1C(=O)N(C1CCC(=O)NC1=O)C2` (stereo partly drawn) [Example 94, (3R)-N-{2-cyano-3-[(3-(4-[4-({1-[2-(2,6-dioxopiperidin-3-yl)-4-fluoro-7-methyl-1-oxo-2,3-dihydro-1H-isoindol-5-yl]piperidin-4-yl}methyl)piperazin-1-yl]phenyl}-4-oxo-3,4-dihydroquinazolin-6-yl)oxy]-4-fluorophenyl}-3-fluoropyrrolidine-1-sulfonamide], in that order: 0.005 to 0.05 µM, 35 to 70%, 0.001 to 0.01 µM and ≤ 35%.
Consider `N#Cc1c(NS(=O)(=O)N2CC[C@@H](F)C2)ccc(F)c1Oc1ccc2ncn(-c3ccc(N4CCN(CC5CCN(c6ccc(C7CCC(=O)NC7=O)nc6)CC5)CC4)cc3)c(=O)c2c1` (stereo partly drawn) [Example 95, (3R)-N-{2-cyano-3-[(3-{4-[4-({1-[6-(2,6-dioxopiperidin-3-yl)pyridin-3-yl]piperidin-4-yl}methyl)piperazin-1-yl]phenyl}-4-oxo-3,4-dihydroquinazolin-6-yl)oxy]-4-fluorophenyl}-3-fluoropyrrolidine-1-sulfonamide], for which, on B-RAF V600E, the DC50 was 0.005 to 0.05 µM and the Dmax fell in the range of 35 to 70%. Further, at B-RAF G466V, the 50% degradation concentration (DC50) lay in the range of 0.001 to 0.01 µM and the Dmax was ≤ 35%.
At B-RAF V600E, `N#Cc1c(NS(=O)(=O)N2CC[C@@H](F)C2)ccc(F)c1Oc1ccc2ncn(-c3ccc(N4CCN(CC5CCN(c6ccc(N7CCC(=O)NC7=O)cc6)CC5)CC4)cc3)c(=O)c2c1` [Example 96, (3R)-N-{2-cyano-3-[(3-(4-[4-({1-[4-(2,4-dioxo-1,3-diazinan-1-yl)phenyl]piperidin-4-yl}methyl)piperazin-1-yl]phenyl}-4-oxo-3,4-dihydroquinazolin-6-yl)oxy]-4-fluorophenyl}-3-fluoropyrrolidine-1-sulfonamide] gave a half-maximal degradation concentration (DC50) of 0.005 to 0.05 µM and a Dmax of 35 to 70%. Further, at B-RAF G466V, the half-maximal degradation concentration (DC50) was 0.001 to 0.01 µM and the Dmax is ≤ 35%.
Regarding `N#Cc1c(NS(=O)(=O)N2CC[C@@H](F)C2)ccc(F)c1Oc1ccc2ncn(-c3ccn(C4CC5(C4)CN(CC4CCN(c6ccc7c(c6)CN(C6CCC(=O)NC6=O)C7=O)CC4)C5)n3)c(=O)c2c1` (stereo partly drawn) [Example 97, (3R)-N-{2-cyano-3-[(3-{1-[2-({1-[2-(2,6-dioxopiperidin-3-yl)-1-oxo-2,3-dihydro-1H-isoindol-5-yl]piperidin-4-yl}methyl)-2-azaspiro[3.3]heptan-6-yl]-1H-pyrazol-3-yl}-4-oxo-3,4-dihydroquinazolin-6-yl)oxy]-4-fluorophenyl}-3-fluoropyrrolidine-1-sulfonamide], on B-RAF V600E, the DC50 was in the range of 0.05 to 0.5 µM and the maximal degradation (Dmax) was 35 to 70%. For the same molecule, at B-RAF G466V, the half-maximal degradation concentration (DC50) was in the range of 0.001 to 0.01 µM and the maximal degradation (Dmax) is 35 to 70%.
On B-RAF V600E, `Cn1c(=O)n(C2CCC(=O)NC2=O)c2cccc(N3CCC(CN4CCN(c5ccc(-n6cnc7ccc(Oc8c(F)ccc(NS(=O)(=O)N9CC[C@@H](F)C9)c8C#N)cc7c6=O)cc5)CC4)CC3)c21` (stereo partly drawn) [Example 98, (3R)-N-{2-cyano-3-[(3-{4-[4-({1-[1-(2,6-dioxopiperidin-3-yl)-3-methyl-2-oxo-2,3-dihydro-1H-1,3-benzodiazol-4-yl]piperidin-4-yl}methyl)piperazin-1-yl]phenyl}-4-oxo-3,4-dihydroquinazolin-6-yl)oxy]-4-fluorophenyl}-3-fluoropyrrolidine-1-sulfonamide] showed a DC50 of 0.05 to 0.5 µM and a Dmax of 35 to 70%. On B-RAF G466V, the 50% degradation concentration (DC50) lay in the range of 0.001 to 0.01 µM and the Dmax was 35 to 70%.
